Measured values published in publication PMC5107951 (Scientific Reports, 2016).

What was measured:
Assay type in all cases: binding
α7 nAChR [1] = target: T1, α7 nAChR (Homo sapiens, UniProt P36544); assay: cell-based
α7 nAChR [2] = target: T1, α7 nAChR
α7 nAChR [3] = target: T1, α7 nAChR; remark: listed apart in the source

T1 sequence (P36544 23-502 limits assumed): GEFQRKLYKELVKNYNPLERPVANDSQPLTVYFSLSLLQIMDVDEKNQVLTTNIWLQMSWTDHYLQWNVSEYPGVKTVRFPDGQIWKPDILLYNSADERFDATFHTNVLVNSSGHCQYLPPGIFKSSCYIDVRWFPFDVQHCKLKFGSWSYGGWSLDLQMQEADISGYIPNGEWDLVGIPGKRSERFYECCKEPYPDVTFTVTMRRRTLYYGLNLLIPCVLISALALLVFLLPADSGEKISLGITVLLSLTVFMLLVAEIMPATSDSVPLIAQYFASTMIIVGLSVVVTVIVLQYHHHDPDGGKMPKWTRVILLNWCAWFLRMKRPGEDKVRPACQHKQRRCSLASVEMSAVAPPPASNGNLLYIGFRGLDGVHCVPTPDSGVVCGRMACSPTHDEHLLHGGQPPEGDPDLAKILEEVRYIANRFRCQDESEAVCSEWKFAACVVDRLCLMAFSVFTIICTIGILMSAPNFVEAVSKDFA

With α-cobratoxin as the substance, how does the “Hill coefficient, “replaceable” binding at the orthosteric site” value (α7 nAChR [1]) read?
Its value is 1.0 ± 0.3.

And the “radioligand [125I]-PnIA[R9, L10] not displaced” value (α7 nAChR [1])?
The value was “≈ 25%”.

And the IC50 (α7 nAChR [1]; read-out: IC50 of [125I]-PnIA[R9, L10] binding inhibition, “replaceable” binding at the orthosteric site)?
The IC50 was 11 ± 3 nM.

And the “removal of [125I]-PnIA[R9, L10] from α7 nAChR (in words)” value (α7 nAChR [2])?
The value was “could not completely remove the radioligand from the target even after a 2-hour incubation”.

What about the “inhibition of [125I]-PnIA[R5, R9, L10, R14] binding (in words)” value (α7 nAChR [3]) of the same substance?
Its value is “failed to achieve a 50% inhibition”.
